This passage reports relative viability results from the supplement of paper PMC10307832.

What all share (experiment): relative viability (nuclei count vs DMSO), 5 days (fraction); higher = more cells survive
Compound in assay [1]: COC1=C(C=C(C=C1)C2=CC3=NC=CN3C(=N2)NC4=C(C=CC=N4)C(=O)N)OC [BAY61-3606] + CCNC(=O)c1noc(-c2cc(C(C)C)c(O)cc2O)c1-c1ccc(CN2CCOCC2)cc1 [Luminespib] (partner 0.01 µM)
In outline:
(§1)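 Each reported value is a median over duplicate plates. It expresses relative viability: treated-well nuclei count divided by vehicle-well nuclei count. Lung cancer cell lines in 1536-well plates were dosed by pin tool a day after seeding, alone with one drug or with a fixed anchor-drug dose plus five library-drug doses (not always all listed) in √10 steps, and nuclei were counted after 5 days.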

Compound in assay [2]: COC1=C(C=C(C=C1)C2=CC3=NC=CN3C(=N2)NC4=C(C=CC=N4)C(=O)N)OC [BAY61-3606] + Nc1ncn([C@H]2C[C@H](O)[C@@H](CO)O2)c(=O)n1 [Decitabine] (partner 2 µM)
The essentials: as §1

Compound in assay [3]: COC1=C(C=C(C=C1)C2=CC3=NC=CN3C(=N2)NC4=C(C=CC=N4)C(=O)N)OC [BAY61-3606] + N=C(N)NC(=N)NCCc1ccccc1 [Phenformin] (partner 250 µM)
The essentials: as §1

Compound in assay [4]: COc1cccc2c1C(=O)c1c(O)c3c(c(O)c1C2=O)C[C@@](O)(C(=O)CO)C[C@@H]3O[C@H]1C[C@H](N)[C@H](O)[C@H](C)O1 [Doxorubicin] + C[C@]1(O)C[C@@H](c2nc(-c3ccc4ccc(-c5ccccc5)nc4c3)c3c(N)nccn32)C1 [Linsitinib] (partner 1 µM)
In outline: as §1

For the cell line NCI-H727, the relative viability turned out to be 0.334 in assay [1] (first compound 0.02 µM); 0.364 in assay [1] (first compound 0.06325 µM); 0.266 in assay [1] (first compound 0.2 µM); 0.328 in assay [1] (first compound 0.6325 µM); 0.331 in assay [1] (first compound 2 µM); 0.8 in assay [2] (first compound 0.02 µM). Moreover, the relative viability was 0.8 in assay [2] (first compound 0.06325 µM); 0.947 in assay [2] (first compound 0.2 µM); 0.981 in assay [2] (first compound 0.6325 µM); 0.895 in assay [2] (first compound 2 µM); 0.68 in assay [3] (first compound 0.02 µM); 0.554 in assay [3] (first compound 0.06325 µM). The relative viability in assay [3] (first compound 0.2 µM) was 0.542; in assay [3] (first compound 0.6325 µM) it was 0.553; in assay [3] (first compound 2 µM) it was 0.541; in assay [4] (first compound 0.001 µM), 0.275; in assay [4] (first compound 0.003162 µM), 0.323; in assay [4] (first compound 0.01 µM), 0.304. The relative viability in assay [4] (first compound 0.03162 µM) came out at 0.251; in assay [4] (first compound 0.1 µM) it was 0.455.
For NCI-H2405, the relative viability was 0.736 in assay [1] (first compound 0.02 µM); 0.569 in assay [1] (first compound 0.06325 µM); 0.716 in assay [1] (first compound 0.2 µM); 0.739 in assay [1] (first compound 0.6325 µM); 0.485 in assay [1] (first compound 2 µM); 0.798 in assay [2] (first compound 0.02 µM). Also, the relative viability in assay [2] (first compound 0.06325 µM) is 0.78; in assay [2] (first compound 0.2 µM), 0.703; in assay [2] (first compound 0.6325 µM), 0.779; in assay [2] (first compound 2 µM) it was 0.643; in assay [3] (first compound 0.02 µM), 0.429; in assay [3] (first compound 0.06325 µM) it was 0.259. The relative viability in assay [3] (first compound 0.2 µM) was 0.383; in assay [3] (first compound 0.6325 µM) it was 0.38; in assay [3] (first compound 2 µM), 0.41; in assay [4] (first compound 0.003162 µM), 0.938; in assay [4] (first compound 0.01 µM) it was 0.887; in assay [4] (first compound 0.03162 µM) it was 0.707. Further, in assay [4] (first compound 0.1 µM), the relative viability came to 0.519.
For LOU-NH91, the relative viability amounted to 0.375 in assay [1] (first compound 0.02 µM); 0.294 in assay [1] (first compound 0.06325 µM); 0.396 in assay [1] (first compound 0.2 µM); 0.379 in assay [1] (first compound 0.6325 µM); 0.317 in assay [1] (first compound 2 µM); 0.809 in assay [2] (first compound 0.02 µM). Further, the relative viability in assay [2] (first compound 0.06325 µM) turned out to be 0.805; in assay [2] (first compound 0.2 µM), 0.847; in assay [2] (first compound 0.6325 µM), 0.838; in assay [2] (first compound 2 µM) it was 0.746; in assay [3] (first compound 0.02 µM), 0.716; in assay [3] (first compound 0.06325 µM), 0.697. In addition, the relative viability in assay [3] (first compound 0.2 µM) is 0.695; in assay [3] (first compound 0.6325 µM), 0.702; in assay [3] (first compound 2 µM), 0.649; in assay [4] (first compound 0.003162 µM) it was 0.826; in assay [4] (first compound 0.01 µM), 0.953; in assay [4] (first compound 0.03162 µM) it was 0.73. Also, the relative viability in assay [4] (first compound 0.1 µM) is 0.7.
For EPLC-272H, the relative viability in assay [1] (first compound 0.02 µM) turned out to be 0.33; in assay [1] (first compound 0.06325 µM), 0.424; in assay [1] (first compound 0.2 µM), 0.801; in assay [1] (first compound 0.6325 µM), 0.131; in assay [1] (first compound 2 µM), 0.138; in assay [2] (first compound 0.02 µM) it was 0.409. The relative viability in assay [2] (first compound 0.06325 µM) came out at 0.403; in assay [2] (first compound 0.2 µM), 0.369; in assay [2] (first compound 0.6325 µM), 0.396; in assay [2] (first compound 2 µM) it was 0.33; in assay [3] (first compound 0.02 µM), 0.254; in assay [3] (first compound 0.06325 µM) it was 0.294. Besides, the relative viability in assay [3] (first compound 0.2 µM) worked out at 0.312; in assay [3] (first compound 0.6325 µM), 0.303; in assay [3] (first compound 2 µM), 0.228; in assay [4] (first compound 0.001 µM), 0.936; in assay [4] (first compound 0.003162 µM) it was 1.45; in assay [4] (first compound 0.01 µM), 1.4. The relative viability worked out at 1.18 in assay [4] (first compound 0.03162 µM) and 1.13 in assay [4] (first compound 0.1 µM).
In the case of NCI-H1975, the relative viability in assay [1] (first compound 0.02 µM) stood at 0.18; in assay [1] (first compound 0.06325 µM), 0.199; in assay [1] (first compound 0.2 µM), 0.268; in assay [1] (first compound 0.6325 µM), 0.247; in assay [1] (first compound 2 µM) it was 0.119; in assay [2] (first compound 0.02 µM), 0.394. Further, the relative viability worked out at 0.416 in assay [2] (first compound 0.06325 µM); 0.438 in assay [2] (first compound 0.2 µM); 0.421 in assay [2] (first compound 0.6325 µM); 0.271 in assay [2] (first compound 2 µM); 0.41 in assay [3] (first compound 0.02 µM); 0.413 in assay [3] (first compound 0.06325 µM). Besides, the relative viability in assay [3] (first compound 0.2 µM) is 0.412; in assay [3] (first compound 0.6325 µM), 0.394; in assay [3] (first compound 2 µM), 0.301; in assay [4] (first compound 0.001 µM), 1.09; in assay [4] (first compound 0.003162 µM), 1.02; in assay [4] (first compound 0.01 µM), 0.845. In addition, the relative viability was found to be 0.572 in assay [4] (first compound 0.03162 µM) and 0.464 in assay [4] (first compound 0.1 µM).
On to NCI-H322M, for which the relative viability in assay [1] (first compound 0.02 µM) was 0.879; in assay [1] (first compound 0.06325 µM), 0.806; in assay [1] (first compound 0.2 µM) it was 0.818; in assay [1] (first compound 0.6325 µM) it was 0.819; in assay [1] (first compound 2 µM) it was 0.742; in assay [2] (first compound 0.02 µM), 0.747. In addition, the relative viability in assay [2] (first compound 0.06325 µM) was 0.666; in assay [2] (first compound 0.2 µM) it was 0.662; in assay [2] (first compound 0.6325 µM) it was 0.706; in assay [2] (first compound 2 µM), 0.657; in assay [3] (first compound 0.02 µM), 0.824; in assay [3] (first compound 0.06325 µM), 0.71. The relative viability in assay [3] (first compound 0.2 µM) is 0.812; in assay [3] (first compound 0.6325 µM), 0.773; in assay [3] (first compound 2 µM), 0.626; in assay [4] (first compound 0.001 µM), 0.986; in assay [4] (first compound 0.003162 µM) it was 0.913; in assay [4] (first compound 0.01 µM) it was 0.982. Besides, the relative viability in assay [4] (first compound 0.03162 µM) was 0.974; in assay [4] (first compound 0.1 µM), 0.952.
